# Earlier results as cited in patent US9828573B2, “Alcohol composition and derivatives thereof” (SHELL OIL COMPANY, priority 2015, dated 2017).
# Tested on: Proponibacterium acnes
# Settings: Journal of Natural Products Vol. 57, No. 1, pp. 9-17, January 1994
compound,measurement,value
"CCCCCCCCCCCCCCCO [Normal 1-pentadecanol, 1-pentadecanol]",activity against Proponibacterium acnes,specific activity
